Source: ChEMBL document CHEMBL1154412, “In vitro activity of telavancin against gram-positive clinical isolates recently obtained in Europe” (Antimicrob Agents Chemother, 2007)
Converted amounts (≈) assume the structure as drawn.

Key:
Assay type in all cases: functional
[1] = system: Staphylococcus aureus; test: Antimicrobial activity against methicillin-resistant Staphylococcus aureus after 20 to 24 hrs by broth microdilution method
[2] = system: Staphylococcus aureus; test: Antimicrobial activity against methicillin-susceptible Staphylococcus aureus after 20 to 24 hrs by broth microdilution method
[3] = system: Staphylococcus; test: Antimicrobial activity against methicillin-resistant coagulase-negative Staphylococcus after 20 to 24 hrs by broth microdilution method
[4] = system: Staphylococcus; test: Antimicrobial activity against methicillin-susceptible coagulase-negative Staphylococcus after 20 to 24 hrs by broth microdilution method
[5] = system: Streptococcus pneumoniae; test: Antibacterial activity against penicillin-susceptible Streptococcus pneumoniae after 20 to 24 hrs by broth microdilution method
[6] = system: Streptococcus viridans; test: Antimicrobial activity against Streptococcus viridans after 20 to 24 hrs by broth microdilution method
[7] = system: Streptococcus pneumoniae; test: Antibacterial activity against penicillin-intermediate Streptococcus pneumoniae after 20 to 24 hrs by broth microdilution method
[8] = system: Streptococcus sp. 'group A'; test: Antimicrobial activity against Streptococcus group A after 20 to 24 hrs by broth microdilution method
[9] = system: Streptococcus sp. 'group B'; test: Antimicrobial activity against Streptococcus group B after 20 to 24 hrs by broth microdilution method
[10] = system: Streptococcus pneumoniae; test: Antibacterial activity against penicillin-resistant Streptococcus pneumoniae after 20 to 24 hrs by broth microdilution method
[11] = system: Enterococcus faecium; test: Antibacterial activity against vancomycin-resistant Enterococcus faecium after 20 to 24 hrs by broth microdilution method
[12] = system: Enterococcus faecalis; test: Antimicrobial activity against vancomycin-susceptible Enterococcus faecalis after 20 to 24 hrs by broth microdilution method
[13] = system: Enterococcus faecium; test: Antibacterial activity against vancomycin-susceptible Enterococcus faecium after 20 to 24 hrs by broth microdilution method
[14] = system: Enterococcus faecalis; test: Antimicrobial activity against vancomycin-resistant Enterococcus faecalis after 20 to 24 hrs by broth microdilution method

Structure (SMILES) | MIC50 [1] [µg/mL] | MIC90 [1] [µg/mL] | MIC50 [2] [µg/mL] | MIC90 [2] [µg/mL] | MIC50 [3] [µg/mL] | MIC90 [3] [µg/mL] | MIC50 [4] [µg/mL] | MIC90 [4] [µg/mL] | MIC50 [5] [µg/mL] | MIC90 [5] [µg/mL] | MIC50 [6] [µg/mL] | MIC90 [6] [µg/mL] | MIC50 [7] [µg/mL] | MIC90 [7] [µg/mL] | MIC50 [8] [µg/mL] | MIC90 [8] [µg/mL] | MIC50 [9] [µg/mL] | MIC90 [9] [µg/mL] | MIC50 [10] [µg/mL] | MIC90 [10] [µg/mL] | also measured
CNC1C(O)C(OC2C(N)CC(N)C(OC3OC(CN)CCC3N)C2O)OCC1(C)O (stereo not given) [GENTAMICIN C1A] | 0.5 (≈ 1.11 µM) | > 16 | 0.25 (≈ 0.556 µM) | 1 (≈ 2.22 µM) | 8 (≈ 17.8 µM) | > 16 | ≤ 0.06 | ≤ 0.06 |  |  |  |  |  |  |  |  |  |  |  |  | MIC [4]: ≤ 0.06 µg/mL
C[C@H]1COc2c(N3CCN(C)CC3)c(F)cc3c(=O)c(C(=O)O)cn1c23.C[C@H]1COc2c(N3CCN(C)CC3)c(F)cc3c(=O)c(C(=O)O)cn1c23.O [LEVOFLOXACIN] |  |  |  |  |  |  |  |  | 0.5 | 1 | 0.5 | 1 | 0.5 | 1 | 0.5 | 0.5 | 0.5 | 1 | 0.5 | 4 | 
CC(=O)NC[C@H]1CN(c2ccc(N3CCOCC3)c(F)c2)C(=O)O1 [LINEZOLID] | 2 (≈ 5.93 µM) | 2 (≈ 5.93 µM) | 2 (≈ 5.93 µM) | 2 (≈ 5.93 µM) | 2 (≈ 5.93 µM) | 2 (≈ 5.93 µM) | 1 (≈ 2.96 µM) | 2 (≈ 5.93 µM) | 1 (≈ 2.96 µM) | 1 (≈ 2.96 µM) | 1 (≈ 2.96 µM) | 1 (≈ 2.96 µM) | 1 (≈ 2.96 µM) | 1 (≈ 2.96 µM) |  |  | 1 (≈ 2.96 µM) | 1 (≈ 2.96 µM) | 1 (≈ 2.96 µM) | 1 (≈ 2.96 µM) | MIC50 [11]: 2 µg/mL (≈ 5.93 µM); MIC90 [11]: 2 µg/mL (≈ 5.93 µM); MIC50 [12]: 2 µg/mL (≈ 5.93 µM); MIC90 [12]: 2 µg/mL (≈ 5.93 µM); MIC [4]: 1 µg/mL (≈ 2.96 µM); MIC50 [13]: 2 µg/mL (≈ 5.93 µM); MIC90 [13]: 2 µg/mL (≈ 5.93 µM); MIC50 [14]: 2 µg/mL (≈ 5.93 µM); MIC90 [14]: 2 µg/mL (≈ 5.93 µM)
Cc1onc(-c2ccccc2)c1C(=O)N[C@@H]1C(=O)N2[C@@H]1SC(C)(C)[C@@H]2C(=O)O [OXACILLIN] | > 4 | > 4 | 0.25 (≈ 0.623 µM) | 0.5 (≈ 1.25 µM) | > 4 | > 4 | 0.12 (≈ 0.299 µM) | 0.12 (≈ 0.299 µM) |  |  |  |  |  |  |  |  |  |  |  |  | 
CC[C@H]1OC(=O)[C@H](C)C(=O)[C@H](C)[C@@H](O[C@@H]2O[C@H](C)C[C@H](N(C)C)[C@H]2O)[C@](C)(OC)C[C@@H](C)C(=O)[C@H](C)[C@H]2N(CCCCn3cnc(-c4cccnc4)c3)C(=O)O[C@]12C [TELITHROMYCIN] | 0.12 (≈ 0.148 µM) | > 8 | 0.12 (≈ 0.148 µM) | 0.12 (≈ 0.148 µM) | 0.12 (≈ 0.148 µM) | > 8 | 0.06 (≈ 0.0739 µM) | 0.5 (≈ 0.616 µM) | 0.008 (≈ 0.00985 µM) | 0.008 (≈ 0.00985 µM) | 0.008 (≈ 0.00985 µM) | 0.12 (≈ 0.148 µM) | 0.008 (≈ 0.00985 µM) | 0.25 (≈ 0.308 µM) | 0.015 (≈ 0.0185 µM) | 0.015 (≈ 0.0185 µM) | 0.015 (≈ 0.0185 µM) | 0.015 (≈ 0.0185 µM) | 0.015 (≈ 0.0185 µM) | 0.03 (≈ 0.0369 µM) | 
CN(C)[C@@H]1C(O)=C(C(N)=O)C(=O)[C@@]2(O)C(O)=C3C(=O)c4c(O)cccc4[C@@](C)(O)[C@H]3C[C@@H]12 [TETRACYCLINE] |  |  |  |  |  |  |  |  | 0.12 (≈ 0.27 µM) | 0.25 (≈ 0.563 µM) | 0.5 (≈ 1.13 µM) | > 8 | 0.25 (≈ 0.563 µM) | > 8 | 0.12 (≈ 0.27 µM) | > 8 | > 8 | > 8 | 0.25 (≈ 0.563 µM) |  | MIC [8]: 0.12 µg/mL (≈ 0.27 µM)
CN[C@H](CC(C)C)C(=O)N[C@H]1C(=O)N[C@@H](CC(N)=O)C(=O)N[C@H]2C(=O)N[C@H]3C(=O)N[C@H](C(=O)N[C@H](C(=O)O)c4cc(O)cc(O)c4-c4cc3ccc4O)[C@H](O)c3ccc(c(Cl)c3)Oc3cc2cc(c3O[C@@H]2O[C@H](CO)[C@@H](O)[C@H](O)[C@H]2O[C@H]2C[C@](C)(N)[C@H](O)[C@H](C)O2)Oc2ccc(cc2Cl)[C@H]1O [VANCOMYCIN] | 1 (≈ 0.69 µM) | 1 (≈ 0.69 µM) | 0.5 (≈ 0.345 µM) | 1 (≈ 0.69 µM) | 1 (≈ 0.69 µM) | 2 (≈ 1.38 µM) | 1 (≈ 0.69 µM) | 2 (≈ 1.38 µM) | 0.25 (≈ 0.173 µM) | 0.5 (≈ 0.345 µM) | 0.5 (≈ 0.345 µM) | 1 (≈ 0.69 µM) | 0.25 (≈ 0.173 µM) | 0.5 (≈ 0.345 µM) | 0.25 (≈ 0.173 µM) | 0.5 (≈ 0.345 µM) | 0.5 (≈ 0.345 µM) | 0.5 (≈ 0.345 µM) | 0.25 (≈ 0.173 µM) | 0.5 (≈ 0.345 µM) | MIC [5]: 0.25 µg/mL (≈ 0.173 µM); MIC50 [11]: 512 µg/mL (≈ 353 µM); MIC90 [11]: 512 µg/mL (≈ 353 µM); MIC [7]: 0.25 µg/mL (≈ 0.173 µM); MIC50 [12]: 2 µg/mL (≈ 1.38 µM); MIC90 [12]: 2 µg/mL (≈ 1.38 µM); MIC [8]: 0.25 µg/mL (≈ 0.173 µM); MIC [10]: 0.25 µg/mL (≈ 0.173 µM); MIC50 [13]: 1 µg/mL (≈ 0.69 µM); MIC90 [13]: 1 µg/mL (≈ 0.69 µM); MIC50 [14]: 512 µg/mL (≈ 353 µM); MIC90 [14]: > 512 µg/mL
